Source: article PMC12723449, “From Pharmacophore to Warhead: NAD^+‐Targeting Triazoles as Mechanism‐Based Sirtuin Inhibitors” (Angewandte Chemie (International Ed. in English), 2025)

What was measured:
SIRT2 [1] = target: T1, SIRT2 (Homo sapiens, UniProt Q8IXJ6); assay: Differential scanning fluorimetry (DSF) / fluorescence thermal shift assay; assay type: binding
T1 construct: For assay experiments, strep-tagged human SIRT1134−747 and SIRT256-356 were expressed and purified as previously; Strep-tag; made in house; host or cells: E. coli BL21 Star (DE3)
T1 sequence (Q8IXJ6 56-356 limits assumed): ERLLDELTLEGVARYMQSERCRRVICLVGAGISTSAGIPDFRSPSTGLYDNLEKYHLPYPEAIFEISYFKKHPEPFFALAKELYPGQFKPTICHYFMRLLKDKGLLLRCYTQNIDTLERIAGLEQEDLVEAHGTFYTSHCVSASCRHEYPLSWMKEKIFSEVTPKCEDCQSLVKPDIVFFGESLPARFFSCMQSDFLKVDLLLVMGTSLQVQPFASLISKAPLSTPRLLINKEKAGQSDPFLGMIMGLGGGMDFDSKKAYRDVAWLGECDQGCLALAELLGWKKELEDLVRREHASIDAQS
Experimental: Differential scanning fluorimetry (DSF) assay
Differential scanning fluorimetry assays were performed in white 96-well plates (Hard-Shell PCR Plates, BioRad, USA) with a total volume of 20 µL per well and a final DMSO concentration of 5% (v/v), following a published
A solution of 10 µL SIRT2 (final concentration of 6.0 µM) and SYPRO Orange (5x, Sigma-Aldrich, Germany) in assay buffer (25 mM Tris-HCl, 150 mM NaCl, 1 mM DTT, pH 8.0) was mixed with 10 µL of compound and incubated at 25 °C and 350 rpm for 5 min. Where applicable, NAD+ was added to a final concentration of 2.5 mM. Fluorescence
(C1000 Touch™ Thermal Cycler, CFX96™ Real-Time System, BioRad, USA). Melting temperatures were determined using GraphPad Prism, following a published procedure.[6]

SIRT2 [2] = target: T1, SIRT2; assay: Fluorescence polarization assay (FPA); assay type: binding; conditions: with versus without NAD+
Experimental: Protein expression and purification for assays and crystallization
For assay experiments, strep-tagged human SIRT1134−747 and SIRT256-356 were expressed and purified as previously described.[2,4] Briefly, chemically competent E. coli BL21 Star (DE3) cells were transformed with pET30S-hSIRT1134−747 or pET30S-hSIRT256−356 plasmids. Cell cultures were grown in 2× YT medium (5 g/L NaCl, 16 g/L tryptone, 10 g/L yeast extract) supplemented with 50 μg/mL kanamycin at 37 °C reaching an OD600 of 0.6 − 0.7.
Protein expression of SIRT1134−747 and SIRT256−356 was induced with 1 mM IPTG (isopropyl β- D-1-thiogalactopyranoside), followed by incubation for 16 h at 20 °C. […]
Protein purity and identity were confirmed by SDS-PAGE and protein concentration was determined using the BCA assay with BSA as a standard. […] […]
A solution of 10 µL SIRT2 (final concentration of 6.0 µM) and SYPRO Orange (5x, Sigma-Aldrich, Germany) in assay buffer (25 mM Tris-HCl, 150 mM NaCl, 1 mM DTT, pH 8.0) was mixed with 10 µL of compound and incubated at 25 °C and 350 rpm for 5 min. […] Fluorescence intensity was recorded during a temperature gradient of 1°C per 20 s from 25 to 95°C using a real-time PCR machine (C1000 Touch™ Thermal Cycler, CFX96™ Real-Time System, BioRad, USA). […]

CCCCCCCCCCCCc1cn(CCCC[C@H](NC(=O)[C@H](CCCCN)NC(=O)[C@@H]2CCCN2C(=O)[C@H](CC(C)C)NC(=O)[C@H](C)NC(=O)[C@H](CCC(=O)O)NC(C)=O)C(=O)N[C@H](C(=O)NCC(=O)NCC(N)=O)[C@@H](C)O)nn1 [Compound 6]
ΔTm at 10 µM (SIRT2 [1]; 10 µM compound, with NAD+ addition): 16.3 ± 0.1 °C

COCCn1cc(COc2cccc(Cc3cnc(NC(=O)CSc4nc(C)cc(C)n4)s3)c2)nn1 [Compound 1, reference compound]
NAD+-dependent thermal stabilization of SIRT2 (SIRT2 [1]; upon NAD+ addition): pronounced NAD^+‐dependent thermal stabilization
change of affinity upon NAD+ addition (FP) (SIRT2 [2]): increased affinities upon NAD+ addition

Cc1cc(C)nc(SCC(=O)Nc2ncc(Cc3cccc(OCc4c[nH]nn4)c3)s2)n1 [Compound 7]
change of affinity upon NAD+ addition (FP) (SIRT2 [2]): increased affinities upon NAD+ addition
